Tests used:
[1] = Conditions for dissolving methacetin: dissolving time; type: physicochemical; conditions: room temperature (approximately 25° C.)
Procedure: It was evaluated whether the thermal cycle for dissolving the API (active pharmaceutical ingredient, such as methacetin) can be eliminated from or at least lowered in the process. Cold vortexing, as well as the assistance of excipients acceptable by the international pharmaceutical regulations and capable of assisting in improving the dissolution of the API, were utilized.
Experimentation trials were performed, in order to eliminate the heating stage while dissolving the API (methacetin) in purified water.
Therefore, alternative directions for improving the API dissolution were tried. Solvents capable of dissolving the API and approvable for utilization in pharmaceutical preparations were utilized for this task.
30% by volume of the purified water of the preparation was replaced by the alternative solvent. The dissolving time of each preparation was recorded.
Therefore, a gradient of temperature was utilized to completely dissolve the methacetin in the preparation. An in-process control testing was applied at this stage. A UV specific absorbance analytical method, without further manipulation of the sample, was utilized for confirming that the solid has been completely dissolved in the preparation.

[2] = Two weeks stability of methacetin formulations (HPLC assay, appearance); type: physicochemical; conditions: 37-38 mg/100 mL methanol, room temperature, at least one week
Procedure: In the first three items, formulations containing 75 mg methacetin/200 mL solvent were prepared: 2-1. Formulation-1: 76.04 mg methacetin; 62.94 mg SLS; water to final volume of 200 mL. 2-2. Formulation-2: 75.87 mg methacetin; 4 mL PPG-400; water to final volume of 200 mL. 2-3. Formulation-3: 76.66 mg methacetin; 4 mL tween-80; water to final volume of 200 mL. The first three formulated solutions were stored at room temperature protected from light. The fourth solution was stored in an incubator for 3 months at 40° C. On each testing interval, the formulated samples were analyzed according to the following method: [table] The samples were diluted to a concentration of about 37 ppm (37 mg in 1000 ml) and analyzed against a standard solution at the same concentration. The standard was provided by the sponsor (Adrich 428264 batch: UI 2335). Purity of 100% was used in calculations. The methacetin sample that was used for the formulations was also used as a standard for the HPLC determination. […] The stock solution was diluted ×10 in mobile phase solution before the HPLC analysis. The assay was conducted according to Analyst SOP No. 05-001-03, and the HPLC method that was provided by the sponsor.

[3] = Decomposition of methacetin on heating in solution; type: physicochemical; conditions: heating at 80° C. for three hours
Procedure: There is thus provided, according to some embodiments, a method of controlled dissolution of methacetin. Methacetin seems to be stable after short term warming to <80° C. in solution. […] Therefore, according to an embodiment of the invention, a solution of methacetin may be prepared by dissolution in warm water.

[4] = as known in the art; cited from earlier work
[5] = parameters: species or system subject; conditions: in vivo
From the text: One of the most common methods for determining the rate of metabolism of methacetin is to analyze the rate of metabolism of the methoxy group (CH3O) of methacetin to carbon dioxide, which is excreted in exhaled breath. To distinguish the carbon dioxide derived from methacetin from all other sources of carbon dioxide, the methoxy group is labeled with ^13C, a stable isotope of carbon. Thus, all the CO2 derived from methacetin will contain ^13C (^13CO2) in contrast to all other sources of CO2, which will contain approximately 99%^12C, and 1% ^13C, the naturally abundant isotope. Thus, the rate of excretion of ^13CO2 (normalized to ^12CO2) above background following the administration of methacetin-methoxy-^13C indicates its rate of metabolism, which relates to the hepatic cell “health” and to the functional mass of the liver.
The curve depicts the rate of metabolism of ^13C-Methacetin in % dose/hour as measured in breath. The peak of the curve (marked by the arrow) appears after 0.4 h (hours). The PDR peak height is approximately at 23.5% dose/hour.
The following are two examples that illustrate this phenomenon. […]

dissolution in water [1] | stability of methacetin stock solution [2] | methacetin decomposed [3] | PDR peak height [5] | time of appearance of the PDR peak [5] | Compound | hepatic extraction ratio [4]
does not dissolve well | stable | 0.018% | – | – | COc1ccc(NC(C)=O)cc1 [methacetin, N-(4-Methoxyphenyl)acetamide] | more than 0.8
– | – | – | ~23.5 % dose/hour | 0.4 h | CC(=O)Nc1ccc(O[13CH3])cc1 [^13C-Methacetin, methacetin-methoxy-^13C] | –

Source: patent US10827969B2, “Breath test device and method” (EXALENZ BIOSCIENCE LTD., priority 2005, dated 2020)
